# In patent publication US10940110B2, “Method and system for the treatment of chronic COPD with nebulized anticholinergic administrations” (Sunovion Respiratory Development Inc., priority 2008, dated 2021):
# Test system: patients with COPD
# Settings: 200 μg
# [1] = high efficiency nebulizer, 24 hour time point
# Procedure: GIS 200 μg/0.5 mL oral inhalation via eFlow.
# GIS 75 μg/0.5 mL oral inhalation via eFlow; 2. GIS 500 μg/0.5 mL oral; 3. GIS 1000 n/0.5 mL oral inhalation via eFlow.
# The primary efficacy variable was serial spirometry throughout the 36 hour period after dosing. The spirometry assessments include forced expiratory volume in one second (FEV1), forced vital capacity (FVC), peak expiratory flow rate (PEFR), FEV1% of predicted normal.
smiles,measurement,setting,value
"C[N+]1(C)CCC(OC(=O)C(O)(c2ccccc2)C2CCCC2)C1 (centres unmarked) [glycopyrrolate, 3-[(cyclopentylhydroxyphenylacetyl)oxy]-1,1-dimethylpyrrolidinium]",increase in FEV1 above baseline (% change from baseline),"conventional jet nebulizer, 12 hr time point and beyond",≤ 10%
same,increase in FEV1 above baseline,"conventional jet nebulizer, any time point after 12 hr",≤ 100 mL
same,mean improvement in peak lung function (peak FEV1) compared to the same dose in the conventional jet nebulizer,high efficiency nebulizer vs conventional jet nebulizer,about 45 mL
same,improvement in FEV1 above baseline (% change from baseline),[1],greater than 10%
same,"improvement in lung function, FEV1 above baseline",[1],greater than 100 mL
